Species: Rattus norvegicus
Assay: DrugMatrix - Regimen: Daily Repeat
Assay type: toxicity, organism-based, Sprague-Dawley
Parameters: regimen Daily Repeat, gender Male, age 6-8 weeks
Conditions: in vivo, po, route oral GAVAGE, vehicle 100 % WATER; for ABSOLUTE BASOPHIL / ABSOLUTE EOSINOPHIL / ABSOLUTE LYMPHOCYTE / ABSOLUTE MONOCYTE / ABSOLUTE SEGMENTED NEUTROPHIL / BASOPHIL / EOSINOPHIL / ERYTHROCYTE COUNT / HEMATOCRIT / HEMOGLOBIN / LEUKOCYTE COUNT / LYMPHOCYTE / MEAN CORPUSCULAR HEMOGLOBIN / MEAN CORPUSCULAR HEMOGLOBIN CONCENTRATION / MEAN CORPUSCULAR VOLUME / MONOCYTE / NEUTROPHIL / NUCLEATED RED BLOOD CELLS / PLATELET COUNT: tissue Blood; for ALANINE AMINOTRANSFERASE / ALBUMIN / ALKALINE PHOSPHATASE / ASPARTATE AMINOTRANSFERASE / BLOOD UREA NITROGEN / CARBON DIOXIDE / CHLORIDE / CHOLESTEROL / CREATINE PHOSPHOKINASE / CREATININE / GLUCOSE / LACTATE DEHYDROGENASE / LIPASE / PHOSPHORUS / POTASSIUM / SODIUM / TOTAL BILIRUBIN / TOTAL PROTEIN / URIC ACID: tissue Plasma
[1] = 0 mg/kg, 72 h, dose level Control, time 3 day
[2] = 0 mg/kg, 120 h, dose level Control, time 5 day
[3] = 39 mg/kg, 72 h, dose level Low, time 3 day

SMILES: C[C@]12Cc3c[nH]nc3C[C@@H]1CC[C@@H]1[C@@H]2CC[C@@]2(C)[C@H]1CC[C@]2(C)O [STANOZOLOL]
- ABSOLUTE BASOPHIL [1]: 0 CELLS/uL
- ABSOLUTE EOSINOPHIL [1]: 32.5 CELLS/uL
- ABSOLUTE LYMPHOCYTE [1]: 9305.83 CELLS/uL
- ABSOLUTE MONOCYTE [1]: 43.83 CELLS/uL
- ABSOLUTE SEGMENTED NEUTROPHIL [1]: 817.83 CELLS/uL
- BASOPHIL [1]: 0%
- EOSINOPHIL [1]: 0.33%
- ERYTHROCYTE COUNT [1]: 5.38 x10E6/uL
- HEMATOCRIT [1]: 33.63%
- HEMOGLOBIN [1]: 13.17 G/DL
- LEUKOCYTE COUNT [1]: 10.2 x10E3/uL
- LYMPHOCYTE [1]: 91.17%
- MEAN CORPUSCULAR HEMOGLOBIN [1]: 24.5 pg
- MEAN CORPUSCULAR HEMOGLOBIN CONCENTRATION [1]: 39.13 G/DL
- MEAN CORPUSCULAR VOLUME [1]: 62.53 fL
- MONOCYTE [1]: 0.5%
- NEUTROPHIL [1]: 8%
- NUCLEATED RED BLOOD CELLS [1]: 0.17 /100WBC
- PLATELET COUNT [1]: 858 x10E3/uL
- ALANINE AMINOTRANSFERASE [1]: 55.67 u/L
- ALBUMIN [1]: 4.07 G/DL
- ALKALINE PHOSPHATASE [1]: 337 u/L
- ASPARTATE AMINOTRANSFERASE [1]: 84 u/L
- BLOOD UREA NITROGEN [1]: 13.17 mg/dL
- CARBON DIOXIDE [1]: 34.17 mmol/L
- CHLORIDE [1]: 99.33 MEQ/L
- CHOLESTEROL [1]: 78.83 mg/dL
- CREATINE PHOSPHOKINASE [1]: 576.83 u/L
- CREATININE [1]: 0.17 mg/dL
- GLUCOSE [1]: 152.67 mg/dL
- LACTATE DEHYDROGENASE [1]: 147.83 u/L
- LIPASE [1]: 9.5 u/L
- PHOSPHORUS [1]: 10.78 mg/dL
- POTASSIUM [1]: 6.34 MEQ/L
- SODIUM [1]: 144.12 MEQ/L
- TOTAL BILIRUBIN [1]: 0.18 mg/dL
- TOTAL PROTEIN [1]: 6.08 G/DL
- URIC ACID [1]: 0.65 mg/dL
- ABSOLUTE BASOPHIL [2]: 0 CELLS/uL
- ABSOLUTE EOSINOPHIL [2]: 31.17 CELLS/uL
- ABSOLUTE LYMPHOCYTE [2]: 7918.33 CELLS/uL
- ABSOLUTE MONOCYTE [2]: 58.33 CELLS/uL
- ABSOLUTE SEGMENTED NEUTROPHIL [2]: 725.5 CELLS/uL
- BASOPHIL [2]: 0%
- EOSINOPHIL [2]: 0.33%
- ERYTHROCYTE COUNT [2]: 5.32 x10E6/uL
- HEMATOCRIT [2]: 33.53%
- HEMOGLOBIN [2]: 13.17 G/DL
- LEUKOCYTE COUNT [2]: 8.73 x10E3/uL
- LYMPHOCYTE [2]: 90.33%
- MEAN CORPUSCULAR HEMOGLOBIN [2]: 24.82 pg
- MEAN CORPUSCULAR HEMOGLOBIN CONCENTRATION [2]: 39.33 G/DL
- MEAN CORPUSCULAR VOLUME [2]: 63.12 fL
- MONOCYTE [2]: 0.67%
- NEUTROPHIL [2]: 8.67%
- NUCLEATED RED BLOOD CELLS [2]: 0 /100WBC
- PLATELET COUNT [2]: 1144.83 x10E3/uL
- ALANINE AMINOTRANSFERASE [2]: 60.5 u/L
- ALBUMIN [2]: 3.97 G/DL
- ALKALINE PHOSPHATASE [2]: 343.17 u/L
- ASPARTATE AMINOTRANSFERASE [2]: 80.83 u/L
- BLOOD UREA NITROGEN [2]: 15 mg/dL
- CARBON DIOXIDE [2]: 31 mmol/L
- CHLORIDE [2]: 99.75 MEQ/L
- CHOLESTEROL [2]: 71.5 mg/dL
- CREATINE PHOSPHOKINASE [2]: 237.17 u/L
- CREATININE [2]: 0.17 mg/dL
- GLUCOSE [2]: 137 mg/dL
- LACTATE DEHYDROGENASE [2]: 146.17 u/L
- LIPASE [2]: 11.5 u/L
- PHOSPHORUS [2]: 10.13 mg/dL
- POTASSIUM [2]: 6 MEQ/L
- SODIUM [2]: 145 MEQ/L
- TOTAL BILIRUBIN [2]: 0.13 mg/dL
- TOTAL PROTEIN [2]: 5.82 G/DL
- URIC ACID [2]: 0.62 mg/dL
- ABSOLUTE BASOPHIL [3]: 0 CELLS/uL
- ABSOLUTE EOSINOPHIL [3]: 60.33 CELLS/uL
- ABSOLUTE LYMPHOCYTE [3]: 8653.33 CELLS/uL
- ABSOLUTE MONOCYTE [3]: 60.33 CELLS/uL
- ABSOLUTE SEGMENTED NEUTROPHIL [3]: 526 CELLS/uL
- BASOPHIL [3]: 0%
- EOSINOPHIL [3]: 0.67%
- ERYTHROCYTE COUNT [3]: 5.9 x10E6/uL
- HEMATOCRIT [3]: 35.57%
- HEMOGLOBIN [3]: 13.63 G/DL
- LEUKOCYTE COUNT [3]: 9.3 x10E3/uL
- LYMPHOCYTE [3]: 93.33%
- MEAN CORPUSCULAR HEMOGLOBIN [3]: 23.13 pg
- MEAN CORPUSCULAR HEMOGLOBIN CONCENTRATION [3]: 38.33 G/DL
- MEAN CORPUSCULAR VOLUME [3]: 60.33 fL
- MONOCYTE [3]: 0.67%
- NEUTROPHIL [3]: 5.33%
- NUCLEATED RED BLOOD CELLS [3]: 0 /100WBC
- PLATELET COUNT [3]: 1025.67 x10E3/uL
- ALANINE AMINOTRANSFERASE [3]: 58 u/L
- ALBUMIN [3]: 4.17 G/DL
- ALKALINE PHOSPHATASE [3]: 448.33 u/L
- ASPARTATE AMINOTRANSFERASE [3]: 81 u/L
- BLOOD UREA NITROGEN [3]: 13.67 mg/dL
- CARBON DIOXIDE [3]: 34.67 mmol/L
- CHLORIDE [3]: 99.33 MEQ/L
- CHOLESTEROL [3]: 57.33 mg/dL
- CREATINE PHOSPHOKINASE [3]: 465.67 u/L
- CREATININE [3]: 0.14 mg/dL
- GLUCOSE [3]: 134.67 mg/dL
- LACTATE DEHYDROGENASE [3]: 171.33 u/L
- LIPASE [3]: 9 u/L
- PHOSPHORUS [3]: 11.43 mg/dL
- POTASSIUM [3]: 6.05 MEQ/L
- SODIUM [3]: 145.03 MEQ/L
- TOTAL BILIRUBIN [3]: 0.2 mg/dL
- TOTAL PROTEIN [3]: 6.13 G/DL
- URIC ACID [3]: 0.6 mg/dL
